# Assays:
# Karpas-422 (EZH2 Y641N) = assay: In vitro 50% growth inhibition (GI50), MTT/CCK8, Karpas-422 cells; format: cell-based; conditions: Homo sapiens, KARPAS-422, 144 h; Drug treatment for 6 days
# Text: (§1) In the present invention, a representative tumor cell line was selected to determine the cell growth inhibition activity of the present compound. Cell culture conditions and methods were in accordance with the requirements for each cell lines. The cells were subcultured in vitro for less than 3 generations each time, and as required, monoclone purification and identification of cell lines could be carried out.
# (§2) The cell culture media used were RPMI1640 (Gibco) comprising 5-20% of fetal bovine serum (Gibco), 1% of double-antibiotic and 2 mM of glutamine.
# (§3) Suspension culture cells were collected by centrifugation (1700 rpm, 3 minutes), and the supernatant was discarded and the cells were counted. According to each cell growth cycle, different concentrations of cells were prepared (1-10×10^4 cells per ml) and added to 96-well plates (Corning) with 100 μl per well, and then incubated overnight at 37° C., 5% CO2. The next day, the test compound was added to the cultured cells (2 wells in parallel). The final concentration of the solvent was less than 1/1,000. The cells were further cultured for 6 to 12 days and assayed by MTT.
# (§4) The compound was stored at a concentration of 10 mM at −20° C. and diluted to two-fold or 10-fold series prior to use.
# (§5) For the suspension culture cells, CCK8 was directly added to 10% of the final concentration. The cells were continually incubated for […].
# (§6) The experiments were repeated 3 times and a statistical analysis of data was conducted.
# [1] = system: EZH2 A677G mutant positive-expressing tumor cell line Pfeiffer; assay: In vivo growth inhibition, Pfeiffer subcutaneous transplantation model; conditions: for Tumor volume: 200 mg/kg orally once a day
# Text: Test Example 2 Determination of the in vivo growth inhibition activity of the present compounds on EZH2 A677G mutant positive-expressing tumor cell line Pfeiffer NOD/SCID mice were subcutaneously inoculated with human diffuse large cell B lymphoma lymphocyte Pfeiffer (ATCC) expressing EZH2 A677G mutant protein to establish a subcutaneous transplantation model of human B cell lymphoma.
# Experimental animals: NOD/SCID mice, female, 9 weeks (weeks of age when tumor cell inoculation), average weight 20.3 g, 18 mice, were purchased from Shanghai Lingchang biotechnology co., Ltd. with animal certificate No.: 2002007656. The breeding environment was SPF grade.
# Test samples: the present example compounds 34 (purity: 99.03%) and 35 (purity: 97.6%), solid powder, preserved at −20° C.
# Pfeiffer cells were cultured in RPM1640 medium containing 10% of fetal bovine serum. Log-phase Pfeiffer cells were collected and resuspended with PBS to 1×10^8 cells per ml for subcutaneous inoculation in NOD/SCID mice.
# All the mice were treated with Co60 irradiation at a dose of 200 rad the day before the inoculation, and 1×10^7 Pfeiffer cells were then subcutaneously inoculated at the right back, and the cells were resuspended in 1:1 PBS and Matrigel (0.1 ml/mouse). When the average tumor volume was 134 mm^3, the mice were randomly grouped according to tumor size. Tumor volume was calculated as: long diameter×short diameter^2/2. The day of tumor cells inoculation was defined as day 0. The test was divided into solvent control group and drug treatment group (compound 34 group and compound 35 group). 6 mice for each group were given orally once a day for a total of 4 weeks. Efficacy was assessed based on relative tumor growth inhibition value (TGI), and safety was assessed based on animal weight change and mortality.
# Preparation of test samples: compounds 34 or 35 was weighed and mixed with ultrapure water, and methanesulfonic acid was added for clarification. The PH value was about 1.64 at this moment. 4M NaOH was then added to adjust the PH to 3.5 and bring to volume by ultrapure water, the final concentrations was 20 mg/ml. Determination standard: TGI (%): […].
# T/C % refers to the relative value-added rate of tumor, that is, the percentage value of relative tumor volume or tumor weight for the treatment group and the control group at a certain point. T and C were the relative tumor volumes (RTV) of the treatment group and the control group at a specific point, respectively. The calculation formula is as follows: T/C%=TRTV/CRTV*100% TRTV: mean RTV of the treatment group; CRTV: mean RTV of solvent control group; RTV=Vt/V0, V0 was the tumor volume of the animal when grouping, Vt was the tumor volume of the animal after treatment. Statistical analysis: all test results were defined as mean tumor volume±SEM (mean standard error). Tumor volume data of 27 days after the start of treatment were selected for statistical analysis among different groups, and independent sample T test was used to compare whether there were significant differences in tumor volume between the treatment group and the control group. All data were analyzed using SPSS 18.0. P<0.05 was considered as significant difference.
# Pfeiffer (EZH2 A677G) = assay: In vitro 50% growth inhibition (GI50), MTT/CCK8, Pfeiffer cells; format: cell-based, Human; conditions: Homo sapiens, Pfeiffer, 240 h; Drug treatment for 10 days
# Text: as §1, §2, §3, §4, §5, §6
# [2] = In vivo pharmacokinetics in rats; conditions: SD rats
# Description: Test Example 4 Study of In Vivo Pharmacokinetics of the Present Compounds in Rats
# Male SD rats (Shanghai Sippr-BK Experimental Animal Co., Ltd) were purchased and kept in Shanghai University of Traditional Chinese Medicine animal center (approved by the ethics committee of Shanghai University of Traditional Chinese Medicine) for 7 days. The rats were randomly divided into 4 groups (˜220 g), 3 rats for each group. Animals were administered intravenously (iv) and orally (po). The rats in po group were starved for 12 hours before administration. After administration, blood was collected from the orbital venous plexus at 0 min (before administration), 2 min, 5 min, 15 min, 30 min, 1 h, 2 h, 4 h, 6 h, 8 h and 24 h. About 200 ul of blood was collected at each time point, and were collected in 1.5 ml centrifuge tube containing heparin sodium. The upper blood […] were collected by centrifugation (8000 rpm, 3 min) and stored at −80° C.
# Preparation of test samples: 125.0 mg compound 34 or compound 35 was weighed and added with 4 ml ultrapure water, and 25 ul methanesulfonic acid was added with stirring. The mixture was further stirred until clear and transparent (pH ˜3.32). 1 ml of the above solution was added with 4 ml of ultra-pure water to obtain 5 mg/ml of compound 34 or compound 35 solution (pH=3.5).
# Dose and mode of administration: single oral dose (100 mpk) and single intravenous dose (5 mpk).
# Administration volume: 4 ml/kg (orally), 1 ml/kg (intravenously).
# The plasma concentration of the compound was determined by LC-MS/MS (AB scexqtrap@4500 LCMS/MS system). Pharmacokinetic parameters were calculated by WinNonlin (a professional software). The experiment was repeated once.
# SU-DHL-8 (EZH2 WT) = assay: In vitro 50% growth inhibition (GI50), MTT/CCK8, SU-DHL-8 cells; format: cell-based; conditions: Homo sapiens, SU-DHL-8, 144 h; Drug treatment for 6 days
# Text: as §1, §2, §3, §4, §5, §6
# [3] = 200 mg/kg, 27th day after the start of treatment
# [4] = 200 mg/kg, 27 days after the start of treatment
smiles,measurement,setting,value
"C=CC(=O)N1CCC(N(CC)c2cc(-c3ccc(CN4CCOCC4)cc3)cc(C(=O)NCc3c(C)cc(C)[nH]c3=O)c2C)CC1 [Example 35, N-(4,6-dimethyl-2-oxo-1,2-dihydro-pyridin-3-ylmethyl)-5-[(1-acryloyl-piperidin-4-yl)-ethyl-amino]-4-methyl-4′-(morpholin-4-ylmethyl)-[1,1′-biphenyl]-3-carboxamide]",GI50,Karpas-422 (EZH2 Y641N),0.01 to 0.1 µM
same,body weight during the treatment,[1]; 200 mg/kg dose,maintained a stable body weight
same,tolerability,[1]; 200 mg/kg dose,well tolerated
same,Tumor volume,[1]; Day 0 after the start of treatment,134 ± 9 mm^3
same,Tumor volume,[1]; Day 3 after the start of treatment,324 ± 38 mm^3
same,Tumor volume,[1]; Day 7 after the start of treatment,681 ± 72 mm^3
same,Tumor volume,[1]; Day 10 after the start of treatment,635 ± 88 mm^3
same,Tumor volume,[1]; Day 14 after the start of treatment,710 ± 87 mm^3
same,Tumor volume,[1]; Day 17 after the start of treatment,751 ± 135 mm^3
same,Tumor volume,[1]; Day 21 after the start of treatment,801 ± 152 mm^3
same,Tumor volume,[1]; Day 24 after the start of treatment,1029 ± 193 mm^3
same,Tumor volume,"[1]; Day 27 after the start of treatment, listed as Compound 35",1116 ± 196 mm^3
same,Tumor volume,"[1]; Day 27 after the start of treatment, listed as compound 35",1116 mm^3
same,"RTV (x ± S), relative tumor volume",[1]; [3],8.2 ± 1.1
same,"T/C (%), relative tumor volume",[1]; [3],57.7%
same,"TGI (%), relative tumor volume",[1]; [3],42.3%
same,"T/C (%), tumor weight",[1]; [4],51.3%
same,"TGI, tumor weight",[1]; [4],48.7%
same,Tumor weight (mg) (x ± S),[1]; [4],580 ± 99 mg
same,"anti-tumor effect, in words","[1]; 200 mg/kg, versus solvent control group",significant anti-tumor effects
same,GI50,Pfeiffer (EZH2 A677G),0.001 to 0.01 µM
same,"bioavailability, in words",[2],good bioavailability
same,bioavailability,"[2]; male, rat, plasma, IV 5 mg/kg, PO 100 mg/kg, methanesulfonic acid aqueous solution",39.1%
same,GI50,SU-DHL-8 (EZH2 WT),> 1 µM

# Source: US11214561B2, “Histone methyltransferase EZH2 inhibitor, preparation method and pharmaceutical use thereof” (ANCUREALL PHARMACEUTICAL (SHANGHAI) CO., LTD., priority 2017, dated 2022)
